# Assay results: publication PMC5862592, “CDK8/19 inhibition induces premature G1/S transition and ATR-dependent cell death in prostate cancer cells” (Oncotarget, 2018)
# Read-outs that look alike come from different tables or passages of the source.
# Experiments:
# Test in all cases: biochemical
# Design in all cases: KINOMEscan active site-directed competition binding assay (DiscoveRx), 456 kinases, per cent of control at 300 nM
# Settings in all cases: read-out: Percent of Control (%)
# LOK = target: T1, LOK (Homo sapiens, UniProt O94804)
# T1 construct: gene STK10
# Procedure, shortened: (§1)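 Active site-directed competition binding (KINOMEscan) across a 456-kinase panel, compounds tested at 300 nmol/L.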
# PIK3CD = PIK3CD (Homo sapiens, UniProt O00329)
# Procedure, shortened: as §1
# NEK11 = NEK11 (Homo sapiens, UniProt Q8NG66)
# Procedure, shortened: as §1
# [1] = target: T2, RPS6KA5(Kin.Dom.1-N-terminal) (Homo sapiens, UniProt O75582)
# T2 construct: Kin.Dom.1-N-terminal
# Procedure, shortened: as §1
# FLT3 = FLT3 (Homo sapiens, UniProt P36888)
# Procedure, shortened: as §1
# MKNK1 = MKNK1 (Homo sapiens, UniProt Q9BUB5)
# Procedure, shortened: as §1
# SRPK2 = SRPK2 (Homo sapiens, UniProt P78362)
# Procedure, shortened: as §1
# BMX = BMX (Homo sapiens, UniProt P51813)
# Procedure, shortened: as §1
# [2] = target: T3, JAK2(JH1domain-catalytic) (Homo sapiens, UniProt O60674)
# T3 construct: JH1domain-catalytic
# Procedure, shortened: as §1
# MAP4K2 = MAP4K2 (Homo sapiens, UniProt Q12851)
# Procedure, shortened: as §1
# FGFR2 = FGFR2 (Homo sapiens, UniProt P21802)
# Procedure, shortened: as §1
# ERN1 = ERN1 (Homo sapiens, UniProt O75460)
# Procedure, shortened: as §1
# HIPK3 = HIPK3 (Homo sapiens, UniProt Q9H422)
# Procedure, shortened: as §1
# JNK3 = target: T4, JNK3 (Homo sapiens, UniProt P53779)
# T4 construct: gene MAPK10
# Procedure, shortened: as §1
# CAMKK1 = CAMKK1 (Homo sapiens, UniProt Q8N5S9)
# Procedure, shortened: as §1
# CDK4-cyclinD1 = target: T5, CDK4-cyclinD1 (Homo sapiens, UniProt P11802)
# T5 construct: cyclinD1
# Procedure, shortened: as §1
# AMPK-alpha2 = target: T6, AMPK-alpha2 (Homo sapiens, UniProt P54646)
# T6 construct: gene PRKAA2
# Procedure, shortened: as §1
# KIT(D816V) = KIT(D816V) (Homo sapiens, UniProt P10721, D816V)
# Procedure, shortened: as §1
# IGF1R = IGF1R (Homo sapiens, UniProt P08069)
# Procedure, shortened: as §1
# SRMS = SRMS (Homo sapiens, UniProt Q9H3Y6)
# Procedure, shortened: as §1
# PIP5K1A = PIP5K1A (Homo sapiens, UniProt Q99755)
# Procedure, shortened: as §1
# FGR = FGR (Homo sapiens, UniProt P09769)
# Procedure, shortened: as §1
# MAP4K2, sequence (Q12851 whole entry): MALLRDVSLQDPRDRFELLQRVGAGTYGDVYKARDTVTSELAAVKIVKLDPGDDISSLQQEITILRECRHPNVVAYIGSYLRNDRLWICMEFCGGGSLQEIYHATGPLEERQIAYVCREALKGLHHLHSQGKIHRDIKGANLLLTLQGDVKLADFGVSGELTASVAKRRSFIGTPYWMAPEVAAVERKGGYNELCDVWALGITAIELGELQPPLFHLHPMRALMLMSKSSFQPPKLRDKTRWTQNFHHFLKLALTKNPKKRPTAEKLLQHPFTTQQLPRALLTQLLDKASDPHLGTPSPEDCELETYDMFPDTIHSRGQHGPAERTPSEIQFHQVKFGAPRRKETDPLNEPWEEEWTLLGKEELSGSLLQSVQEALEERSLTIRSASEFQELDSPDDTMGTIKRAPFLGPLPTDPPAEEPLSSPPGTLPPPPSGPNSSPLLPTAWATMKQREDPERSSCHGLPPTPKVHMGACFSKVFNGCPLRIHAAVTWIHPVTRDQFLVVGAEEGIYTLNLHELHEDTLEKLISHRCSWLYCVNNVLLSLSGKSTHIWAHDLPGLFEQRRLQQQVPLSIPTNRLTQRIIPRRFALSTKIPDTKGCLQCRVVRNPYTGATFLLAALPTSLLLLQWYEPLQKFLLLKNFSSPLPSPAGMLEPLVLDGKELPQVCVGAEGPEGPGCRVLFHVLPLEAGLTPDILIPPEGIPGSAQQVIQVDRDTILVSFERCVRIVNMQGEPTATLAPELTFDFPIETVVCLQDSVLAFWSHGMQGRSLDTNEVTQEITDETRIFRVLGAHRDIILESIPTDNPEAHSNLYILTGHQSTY
# IGF1R, sequence (P08069 whole entry): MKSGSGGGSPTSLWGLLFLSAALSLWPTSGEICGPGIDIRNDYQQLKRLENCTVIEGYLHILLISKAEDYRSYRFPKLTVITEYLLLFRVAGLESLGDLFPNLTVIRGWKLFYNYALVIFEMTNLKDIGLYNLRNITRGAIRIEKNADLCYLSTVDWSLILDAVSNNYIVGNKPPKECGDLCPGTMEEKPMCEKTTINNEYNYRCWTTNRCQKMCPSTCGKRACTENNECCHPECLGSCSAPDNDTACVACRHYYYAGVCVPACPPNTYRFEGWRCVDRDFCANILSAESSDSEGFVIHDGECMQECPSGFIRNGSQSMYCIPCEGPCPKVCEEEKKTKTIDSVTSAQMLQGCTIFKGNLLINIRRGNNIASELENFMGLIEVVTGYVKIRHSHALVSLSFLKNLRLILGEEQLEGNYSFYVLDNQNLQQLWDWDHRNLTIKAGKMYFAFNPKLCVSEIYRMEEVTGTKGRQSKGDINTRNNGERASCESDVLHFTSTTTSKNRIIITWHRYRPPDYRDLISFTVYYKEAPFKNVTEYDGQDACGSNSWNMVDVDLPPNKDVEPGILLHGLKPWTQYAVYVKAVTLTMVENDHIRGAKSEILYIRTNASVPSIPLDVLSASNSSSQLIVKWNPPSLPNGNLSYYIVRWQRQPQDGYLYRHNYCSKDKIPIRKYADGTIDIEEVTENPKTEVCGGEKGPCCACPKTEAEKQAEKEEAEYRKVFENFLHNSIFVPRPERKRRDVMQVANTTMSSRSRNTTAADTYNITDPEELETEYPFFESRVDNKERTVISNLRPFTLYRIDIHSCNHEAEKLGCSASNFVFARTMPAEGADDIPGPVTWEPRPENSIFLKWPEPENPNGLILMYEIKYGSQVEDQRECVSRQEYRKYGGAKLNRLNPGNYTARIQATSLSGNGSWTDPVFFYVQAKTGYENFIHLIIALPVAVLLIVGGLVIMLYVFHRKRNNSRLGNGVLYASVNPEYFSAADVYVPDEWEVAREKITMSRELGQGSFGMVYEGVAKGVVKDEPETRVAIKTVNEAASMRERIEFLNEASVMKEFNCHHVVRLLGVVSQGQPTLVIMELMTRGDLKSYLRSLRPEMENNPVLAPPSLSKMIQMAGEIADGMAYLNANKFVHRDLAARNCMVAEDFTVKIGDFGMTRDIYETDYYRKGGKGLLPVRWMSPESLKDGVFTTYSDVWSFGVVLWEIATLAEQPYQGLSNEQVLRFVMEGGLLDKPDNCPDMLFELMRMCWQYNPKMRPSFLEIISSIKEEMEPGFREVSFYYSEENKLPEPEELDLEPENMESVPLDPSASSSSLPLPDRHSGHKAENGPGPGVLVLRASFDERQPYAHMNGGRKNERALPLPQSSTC
# BMX, sequence (P51813 whole entry): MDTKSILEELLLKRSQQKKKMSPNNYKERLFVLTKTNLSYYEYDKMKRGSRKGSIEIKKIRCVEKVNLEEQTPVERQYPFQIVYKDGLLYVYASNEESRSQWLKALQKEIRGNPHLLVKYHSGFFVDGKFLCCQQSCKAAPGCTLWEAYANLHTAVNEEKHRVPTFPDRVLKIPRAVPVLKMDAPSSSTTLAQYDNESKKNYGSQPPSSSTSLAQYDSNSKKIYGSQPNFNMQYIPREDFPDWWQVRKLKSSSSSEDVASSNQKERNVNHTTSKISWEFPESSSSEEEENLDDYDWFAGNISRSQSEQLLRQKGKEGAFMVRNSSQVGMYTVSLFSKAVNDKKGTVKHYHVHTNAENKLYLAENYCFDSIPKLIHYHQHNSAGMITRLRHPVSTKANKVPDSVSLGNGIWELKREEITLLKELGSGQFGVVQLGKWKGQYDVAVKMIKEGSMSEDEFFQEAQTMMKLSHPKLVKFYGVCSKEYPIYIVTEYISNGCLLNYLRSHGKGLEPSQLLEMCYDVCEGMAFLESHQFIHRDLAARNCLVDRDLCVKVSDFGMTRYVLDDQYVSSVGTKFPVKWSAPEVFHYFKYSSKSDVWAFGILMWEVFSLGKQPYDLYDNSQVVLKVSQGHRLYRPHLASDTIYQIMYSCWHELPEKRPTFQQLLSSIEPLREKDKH
# ERN1, sequence (O75460 whole entry): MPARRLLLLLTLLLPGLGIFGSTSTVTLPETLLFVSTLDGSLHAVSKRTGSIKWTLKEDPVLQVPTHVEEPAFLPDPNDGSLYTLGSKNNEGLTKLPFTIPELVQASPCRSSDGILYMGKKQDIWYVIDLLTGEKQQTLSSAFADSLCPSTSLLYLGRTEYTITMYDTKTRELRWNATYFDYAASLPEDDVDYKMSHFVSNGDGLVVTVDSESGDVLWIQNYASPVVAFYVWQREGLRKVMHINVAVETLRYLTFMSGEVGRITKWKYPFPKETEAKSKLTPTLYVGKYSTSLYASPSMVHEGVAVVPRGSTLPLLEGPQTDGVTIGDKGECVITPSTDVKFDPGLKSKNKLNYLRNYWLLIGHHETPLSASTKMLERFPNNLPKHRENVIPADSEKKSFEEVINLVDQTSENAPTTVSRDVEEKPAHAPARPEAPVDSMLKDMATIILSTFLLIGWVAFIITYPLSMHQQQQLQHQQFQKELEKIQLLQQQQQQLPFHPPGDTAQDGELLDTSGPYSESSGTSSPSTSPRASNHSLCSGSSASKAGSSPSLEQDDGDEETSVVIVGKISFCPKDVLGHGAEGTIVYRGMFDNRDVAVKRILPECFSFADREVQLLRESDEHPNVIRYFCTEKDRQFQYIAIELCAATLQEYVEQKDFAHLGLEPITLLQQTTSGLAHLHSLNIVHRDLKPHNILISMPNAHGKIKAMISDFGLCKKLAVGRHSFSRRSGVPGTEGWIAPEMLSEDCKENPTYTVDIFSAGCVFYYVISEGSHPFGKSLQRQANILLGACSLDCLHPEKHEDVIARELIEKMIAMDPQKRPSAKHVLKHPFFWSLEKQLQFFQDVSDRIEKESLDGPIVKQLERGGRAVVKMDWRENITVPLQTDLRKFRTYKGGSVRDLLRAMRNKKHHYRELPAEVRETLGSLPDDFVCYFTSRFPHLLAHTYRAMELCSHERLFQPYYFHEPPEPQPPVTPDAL
# HIPK3, sequence (Q9H422 whole entry): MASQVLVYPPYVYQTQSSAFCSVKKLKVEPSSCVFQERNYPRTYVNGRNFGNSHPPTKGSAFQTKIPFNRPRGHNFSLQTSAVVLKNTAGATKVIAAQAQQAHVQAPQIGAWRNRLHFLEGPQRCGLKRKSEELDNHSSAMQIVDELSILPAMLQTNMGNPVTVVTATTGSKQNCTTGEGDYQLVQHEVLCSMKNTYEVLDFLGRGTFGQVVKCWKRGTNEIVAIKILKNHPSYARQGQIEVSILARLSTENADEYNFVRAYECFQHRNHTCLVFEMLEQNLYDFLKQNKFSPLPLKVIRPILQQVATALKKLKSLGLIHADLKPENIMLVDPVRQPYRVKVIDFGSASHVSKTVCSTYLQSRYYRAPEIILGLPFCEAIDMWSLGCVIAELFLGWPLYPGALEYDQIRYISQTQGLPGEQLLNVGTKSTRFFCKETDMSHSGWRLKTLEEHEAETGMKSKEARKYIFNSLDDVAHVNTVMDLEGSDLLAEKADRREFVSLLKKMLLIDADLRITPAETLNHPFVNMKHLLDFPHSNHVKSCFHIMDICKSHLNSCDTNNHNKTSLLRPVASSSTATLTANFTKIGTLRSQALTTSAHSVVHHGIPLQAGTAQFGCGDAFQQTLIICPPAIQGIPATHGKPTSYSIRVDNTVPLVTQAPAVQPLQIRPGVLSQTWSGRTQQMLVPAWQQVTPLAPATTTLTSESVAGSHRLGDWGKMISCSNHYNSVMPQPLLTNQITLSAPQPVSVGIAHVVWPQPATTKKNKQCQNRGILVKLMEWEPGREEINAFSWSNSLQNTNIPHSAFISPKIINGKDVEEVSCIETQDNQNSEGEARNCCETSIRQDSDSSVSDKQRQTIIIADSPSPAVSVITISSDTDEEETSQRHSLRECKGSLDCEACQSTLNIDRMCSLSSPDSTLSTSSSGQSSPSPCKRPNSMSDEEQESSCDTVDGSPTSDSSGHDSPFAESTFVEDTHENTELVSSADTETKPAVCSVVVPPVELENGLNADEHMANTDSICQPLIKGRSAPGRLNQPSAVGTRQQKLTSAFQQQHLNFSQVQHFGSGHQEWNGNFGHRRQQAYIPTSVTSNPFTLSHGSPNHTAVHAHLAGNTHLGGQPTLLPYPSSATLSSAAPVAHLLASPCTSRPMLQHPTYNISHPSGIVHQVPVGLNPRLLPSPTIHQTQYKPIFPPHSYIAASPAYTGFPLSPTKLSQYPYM
smiles,measurement,setting,value
"O=C(/C=C/c1cnccc1-c1ccc(F)cc1)Nc1ccc(CCc2nnco2)cc1 [T-418, (2E)-3-(4-(4-fluorophenyl)pyridin-3-yl)-N-(4-(2-(1,3,4-oxadiazol-2-yl)ethyl)phenyl)acrylamide]",remaining binding at 0.3 µM,LOK; sheet T-418,93%
same,remaining binding at 0.3 µM,PIK3CD; sheet T-418,99%
same,remaining binding at 0.3 µM,NEK11; sheet T-418,100%
same,remaining binding at 0.3 µM,[1]; sheet T-418,80%
same,remaining binding at 0.3 µM,FLT3; sheet T-418,66%
same,remaining binding at 0.3 µM,MKNK1; sheet T-418,44%
same,remaining binding at 0.3 µM,SRPK2; sheet T-418,50%
same,remaining binding at 0.3 µM,BMX; sheet T-418,100%
same,remaining binding at 0.3 µM,[2]; sheet T-418,100%
same,remaining binding at 0.3 µM,MAP4K2; sheet T-418,100%
same,remaining binding at 0.3 µM,FGFR2; sheet T-418,90%
same,remaining binding at 0.3 µM,ERN1; sheet T-418,100%
same,remaining binding at 0.3 µM,HIPK3; sheet T-418,64%
same,remaining binding at 0.3 µM,JNK3; sheet T-418,94%
same,remaining binding at 0.3 µM,CAMKK1; sheet T-418,100%
same,remaining binding at 0.3 µM,CDK4-cyclinD1; sheet T-418,91%
same,remaining binding at 0.3 µM,AMPK-alpha2; sheet T-418,100%
same,remaining binding at 0.3 µM,KIT(D816V); sheet T-418,96%
same,remaining binding at 0.3 µM,IGF1R; sheet T-418,87%
same,remaining binding at 0.3 µM,SRMS; sheet T-418,100%
same,remaining binding at 0.3 µM,PIP5K1A; sheet T-418,94%
same,remaining binding at 0.3 µM,FGR; sheet T-418,93%
"Cc1ncccc1Oc1sc(C(N)=O)c2c1-c1c(cnn1C)CC2 [T-474, 1-methyl-8-((2-methylpyridin-3-yl)oxy)-4,5-dihydro-1H-thieno[3,4-g]indazole-6-carboxamide]",remaining binding at 0.3 µM,LOK,100%
same,remaining binding at 0.3 µM,PIK3CD,88%
same,remaining binding at 0.3 µM,NEK11,100%
same,remaining binding at 0.3 µM,[1],100%
same,remaining binding at 0.3 µM,FLT3,100%
same,remaining binding at 0.3 µM,MKNK1,50%
same,remaining binding at 0.3 µM,SRPK2,100%
same,remaining binding at 0.3 µM,BMX,82%
same,remaining binding at 0.3 µM,[2],100%
same,remaining binding at 0.3 µM,MAP4K2,100%
same,remaining binding at 0.3 µM,FGFR2,100%
same,remaining binding at 0.3 µM,ERN1,89%
same,remaining binding at 0.3 µM,HIPK3,79%
same,remaining binding at 0.3 µM,JNK3,97%
same,remaining binding at 0.3 µM,CAMKK1,100%
same,remaining binding at 0.3 µM,CDK4-cyclinD1,95%
same,remaining binding at 0.3 µM,AMPK-alpha2,100%
same,remaining binding at 0.3 µM,KIT(D816V),94%
same,remaining binding at 0.3 µM,IGF1R,98%
same,remaining binding at 0.3 µM,SRMS,100%
same,remaining binding at 0.3 µM,PIP5K1A,99%
same,remaining binding at 0.3 µM,FGR,100%
